“Also recorded” adds a separate entry of the source. Read-outs that look alike come from different tables or passages of the source.
How the values were obtained:
[1] = system: CaCo-2 cells; test: Antiproliferative effect in CaCo-2 cells, neutral red uptake (NRU) test; assay type: cell-based, human; conditions: for Inhibition of cancer cell proliferation: 0–50 µg/mL, 72 h; for IC50: Homo sapiens
Description: Firstly, the antiproliferative effect of five sesquiterpenes CAR, CAO, HUM, NER, VAL was tested in CaCo-2 cancer cells. The cells were incubated with individual sesquiterpenes in concentrations 0–50 µg/mL for 72 h. After incubation, a number of viable cells was assayed using a NRU test and IC50 values were calculated.
CaCo-2 cancer cells were incubated with DOX alone (concentrations 0.25, 0.5, 1, 2, 4 µM), with individual sesquiterpenes alone (concentrations 6.125, 12.5, 25, 50 µg/mL) and with DOX (concentrations 0.25, 0.5, 1, 2 µM) in combinations with each sesquiterpene (concentrations 6.125, 12.5, 25, 50 µg/mL). […] After 72-h incubation, the number of viable cells was assayed using NRU.
The human epithelial colorectal adenocarcinoma line CaCo-2 was purchased from ATCC (supplier for Czech Republic: LGC Standards, Lomianki, Poland). […] The CaCo-2 cells were cultured in MEM supplemented with 10% heat-inactivated FBS, 1% non-essential amino acid, 1.5% L-glutamine solution and 0.5% penicillin/streptomycin. Cells were grown in T-75 cm^2 culture flasks in a humidified atmosphere containing 5% CO2 at 37 °C.
Pure commercially available sesquiterpenes and DOX were pre-dissolved in DMSO or in pure ethanol. The concentration of organic solvent in medium was 0.1%. The cells were exposed to various concentrations of the tested compounds in culture medium. The cells cultured in medium with pure DMSO or ethanol without tested compounds were used as control samples. […] The number of viable CaCo-2 cells was assayed using the neutral red uptake test after 72 h expositions.
Data are presented as means ± S.D. of a given number of experiments. Statistical significance (evaluated using a one-way ANOVA) was acceptable to a level of p < 0.05. The concentration inducing a 50% decrease of cell viability as compared to control (IC50) was calculated using GraphPad Prism 6.0 nonlinear regression.

[2] = system: CaCo-2 cells; test: Combination of DOX and sesquiterpenes in CaCo-2 cells, NRU test, combination indexes (CalcuSyn); assay type: cell-based, human; conditions: CaCo-2, 72 h; for Combined effect with DOX (combination index, CI): NRU, CalcuSyn
Description: Concentrations of DOX and sesquiterpenes were selected according to the Chou-Talalay Method. After 72-h incubation, the number of viable cells was assayed using NRU. […] When DOX was used in combinations with individual sesquiterpenes, a significant increase of DOX efficacy was observed.
With the aim of evaluating and quantifying the combined effect of DOX and sesquiterpenes, combination indexes were calculated using CalcuSyn (ver. 1.1, Biosoft, Cambridge, UK); the plot of combination indexes (CI) vs. fractions of dead cells (Fa) is presented in Figure 5. […] It is important to emphasize that synergy of anticancer agents at high effect levels (Fa > 0.8) is more relevant to therapy than at low levels.
Figure 5 Combination indexes (CI) of DOX and sesquiterpenes in dependence on fraction of affected CaCo-2 cells (Fa). Incubations lasted for 72 h. Data were calculated using CalcuSyn software.
The cells were cultured in 96‑well plates. After 72 h exposure, the medium was removed and 100 µL of neutral red-containing medium was added into each well, at which time the plates were incubated for an additional 3 h at 37 °C. The cells were washed with 100 µL of PBS, then fixed in a solution of 0.5% formaldehyde/1% calcium chloride for 15 min. The neutral red dye was extracted from the viable cells with a solvent (50% ethanol/1% acetic acid) by shaking for 30 min at room temperature. The absorbance of solubilized dye was measured using a spectrophotometer (Infinite M200, Tecan, Männedorf, Switzerland) at 540 nm. Each sample was assayed in 6 parallels and 3 independent experiments were performed. The viabilities of the treated cells were expressed as a percentage of untreated controls (100%). The effect of sesquiterpenes on DOX efficacy was evaluated using CalcuSyn software.

[3] = system: CaCo-2 cells; test: Intracellular ROS formation (H2DCF-DA) in CaCo-2 cells; assay type: cell-based, human; conditions: for Effect on ROS formation, sesquiterpene alone: 10 µg/mL; for Effect of DOX + sesquiterpene on ROS formation compared with DOX alone: DOX 1 µM + sesquiterpene 10 µg/mL
Source text: (§1) To assess ROS generation in CaCo-2 cells or […], a measurement of 2′,7′-dichlorodihydrofluorescein-diacetate (H2DCF-DA) oxidation was used. This non-fluorescent reagent diffuses passively through the plasma membrane into the cell, where the acetate groups are cleaved by intracellular esterases. The compound can then be oxidized by ROS formed within the cell (particularly by hydroxyl radicals, •OH) to form fluorescent dichlorofluorescein (DCF), while the fluorescence intensity is proportional to the ROS level. CaCo-2 cells or hepatocytes (seeded in a 96-well plate at a density of 2500 cells/well) were washed by PBS buffer and loaded with 100 µL of the tested substances (individual sesquiterpenes, DOX alone, DOX + sesquiterpene combinations pre-dissolved in DMSO) in PBS buffer. After 12-h incubation, 100 µL of 5 μM H2DCF-DA were added. After another incubation of 30-min, fluorescence intensity was measured for 50 min at 37 °C using a microplate reader Tecan Infinite M200 at λex = 485 nm and λem = 525 nm. Cells treated with PBS only with pure DMSO (as a solvent) were used as control samples. The 3% H2O2 solution was used as a positive control.

[4] = system: CaCo-2 cells; test: DOX accumulation in CaCo-2 cells (UHPLC); assay type: cell-based, human; conditions: 3 h; for Effect on intracellular DOX concentration: DOX 6 µM + sesquiterpene 10 or 50 µg/mL
Description: The effect of sesquiterpenes on DOX accumulation in cells was also studied. Concentrations of DOX within cells after a 3-h incubation of CaCo-2 cells, hepatocytes with DOX alone and DOX + sesquiterpene combinations were analyzed. […] On the other hand, the addition of all sesquiterpenes to DOX led to a concentration-dependent increase of DOX concentration within CaCo-2 cells. […] CAO (at concentration 50 µg/mL) was able to enhance the intracellular DOX concentration in CaCo-2 cells at a rate of 3.6-times.
The suspension of CaCo-2 cells or hepatocytes (600 µL; density 5000 cells/100 µL) per well was set to a 12-well plate. After 48 h, 600 µL of solutions in medium of the tested substances were added. The cells were treated with DOX (6 µM) alone, or in combination with individual sesquiterpenes (10 or 50 µg/mL) for 3 h. At the end of the experiment, the medium was removed and cells were washed with 500 µL of PBS. One hundred µL of lysing buffer (25 mM Tris, 150 mM NaCl, 1% Triton, pH 7.4) were then added, at which time the cells were lysed for 15 min, then mixed with 300 µL of ice-cold methanol and centrifuged (10,000× g, 10 min, 4 °C). The supernatant was filtered through a 0.22 µm filter and the filtrate was used for analysis.
DOX was detected on an Agilent 1290 Series UHPLC chromatographic system (Agilent, Santa Clara, CA, USA) equipped with a Zorbax C18 Eclipse Plus (2.1 × 50 mm, 1.8 μm) column with a 1290 Infinity inline filter (Agilent). The HPLC method used by was adapted to a UHPLC system: Isocratic elution of 1.0 mL/min by 0.1% formic acid in water and acetonitrile in ratio 76:24; 30 °C thermostated column compartment; fluorescence detection at λex = 480 nm and λem = 560 nm. Chemical standards were purchased from Toronto Research Chemicals (Toronto, ON, Canada).

[5] = system: primary culture of rat hepatocytes; test: Viability of primary culture of rat hepatocytes, MTT test; conditions: 24 h; for Hepatotoxicity / viability of hepatocytes: sesquiterpene alone 0–50 µg/mL
Description: (§2) The toxicity of DOX alone as well as combinations of DOX and sesquiterpene was tested in primary culture of rat hepatocytes. […] The number of viable cells was measured after 24 h exposition of cells to various concentrations of the tested compounds.
The rat hepatocytes were obtained from rat liver by the two-step collagenase method. Briefly, the liver was perfused with salt solution (0.14 M NaCl, 5.0 mM KCl, 0.8 mM MgSO4) in Na^+/K^+ phosphate buffer (0.2 mM, pH 7.4) containing a calcium binding component (0.4 mM EGTA). […] The collagenase perfusion was proceeded for 5–6 min. After perfusion the liver was transferred to a medium containing BSA and the hepatocytes were released. The obtained suspension was filtered through a nylon mesh and centrifuged at 40× g for 5 min at 4 °C. The pellet was re-suspended in chilled buffer and the washing procedure was twice repeated. Finally, three million viable (75%–85%) cells in 3 mL of culture medium ISOM (1:1 mixture of Ham F12 and Williams’ E) were placed into 96-well plastic dishes. The fetal calf serum was added in the culture medium (5%). Cultures were maintained without the tested compounds for 4 h at 37 °C in a humid atmosphere of air and 5% CO2.
Pure commercially available sesquiterpenes and DOX were pre-dissolved in DMSO or in pure ethanol. The concentration of organic solvent in medium was 0.1%. The cells were exposed to various concentrations of the tested compounds in culture medium. The cells cultured in medium with pure DMSO or ethanol without tested compounds were used as control samples. […] The viability of the hepatocytes was tested using a MTT assay after 24 h expositions.
(§3) The mitochondria of living cells are able to reduce yellow MTT (3-(4,5-dimethylthiazol-2-yl)-2,5-diphenyltetrazolium bromide) to purple formazan. The cells were cultured in 96-well plates. After 24 h exposure, 25 µL of MTT solution (3 mg of MTT in 1 mL of PBS) were added to each well. The plates were incubated for an additional 2 h at 37 °C, at which time the medium was removed and the formed formazan was dissolved in 50 µL of 0.08 M HCl in isopropanol by 30 min shaking. The absorbance in each well was read at 570 and 690 nm using a spectrophotometer (Tecan Infinite M200).

[6] = system: primary culture of rat hepatocytes; test: Effect of sesquiterpenes on DOX toxicity in hepatocytes, MTT test; conditions: 24 h; for Effect on DOX toxicity in hepatocytes at 0.5 µM DOX: 0.5 µM DOX + 12.5 µg/mL sesquiterpene; for Effect on DOX toxicity in hepatocytes at other DOX concentrations: DOX 0.25, 1, 2 µM + sesquiterpene
Description: as §2
Data presented as percentage of control cells (=100%) represent the mean ± S.D. from 2 independent experiments with 6 parallels in each (↑ significant increase; ↓ significant decrease).
Pure commercially available sesquiterpenes and DOX were pre-dissolved in DMSO or in pure ethanol. The concentration of organic solvent in medium was 0.1%. The cells were exposed to various concentrations of the tested compounds in culture medium. The cells cultured in medium with pure DMSO or ethanol without tested compounds were used as control samples. DMSO (10%) served as a positive control in both the primary culture of hepatocytes and of CaCo-2 cells. […] The viability of the hepatocytes was tested using a MTT assay after 24 h expositions.
as §3

[7] = system: hepatocytes; test: Intracellular ROS formation (H2DCF-DA) in hepatocytes; assay type: cell-based, rat; conditions: DOX 1 µM
Source text: as §1

[8] = CaCo-2 cells, 72 h incubation, NRU test, concentrations 0–50 µg/mL, read-out: IC50

IC50 [1, 8] [mg/L] | IC50 ([1]; CaCo-2 cells, 72-h incubation, NRU, DOX alone, read-out: IC50 (antiproliferative effect of DOX)) [µM] | Structure (SMILES) | Inhibition of cancer cell proliferation ([1]; CaCo-2 cells, NRU) | Combined effect with DOX (combination index, CI) [2] | Combined effect with DOX at lower Fa ([2]; lower fraction of affected cells) | Effect on ROS formation, sesquiterpene alone [3] | Effect of DOX + sesquiterpene on ROS formation compared with DOX alone [3] | Effect on intracellular DOX concentration [4] | Hepatotoxicity / viability of hepatocytes [5] | Effect on DOX toxicity in hepatocytes at 0.5 µM DOX [6] | Effect on DOX toxicity in hepatocytes at other DOX concentrations [6] | IC50 ([1]; Caco-2, 72 h) [mg/L] | Combined effect with DOX at Fa > 0.8 ([2]; higher number of cells affected (Fa > 0.8)) | Enhancement of intracellular DOX concentration ([4]; sesquiterpene 50 µg/mL, DOX 6 µM, vs DOX alone) [times] | Effect on DOX toxicity in hepatocytes at DOX 0.25 and 2 µM ([6]; DOX 0.25 and 2 µM + sesquiterpene) | Effect on DOX toxicity in hepatocytes ([6]; DOX 0.25–2 µM + sesquiterpene 6.125–50 µg/mL) | Effect of DOX alone on ROS production ([3]; DOX 1 µM) | Effect of DOX alone on ROS production [7] | Hepatotoxicity of DOX alone ([5]; DOX 0.25–2 µM)
28.7 ± 2.5 | – | C=CC(C)(O)CC/C=C(\C)CCC=C(C)C (racemic) [NER, (±)-trans-nerolidol] | most effective; also recorded: inhibited the proliferation of CaCo-2 cancer cells | significant synergistic effects with DOX | most synergistic effect on DOX | strong antioxidant | significant antioxidant effect | more pronounced enhancement of DOX accumulation | none of tested sesquiterpenes showed hepatotoxicity | increased DOX toxicity | did not influence DOX toxicity | – | – | – | – | – | – | – | –
– | – | C=C(C)[C@@H]1CCC2=CCC[C@@H](C)[C@]2(C)C1 [VAL, valencene] | inhibited the proliferation of CaCo-2 cancer cells | significant synergistic effects with DOX | – | pro-oxidative effects | increase the pro-oxidative effect of DOX | – | none of tested sesquiterpenes showed hepatotoxicity | increased DOX toxicity | did not influence DOX toxicity | 38.1 ± 2.4 | – | – | – | – | – | – | –
> 50 | – | C=C1CC[C@H]2O[C@]2(C)CC[C@@H]2[C@@H]1CC2(C)C [CAO, β-caryophyllene oxide] | inhibited the proliferation of CaCo-2 cancer cells | significant synergistic effects with DOX | – | pro-oxidative effects | increase the pro-oxidative effect of DOX | more pronounced enhancement of DOX accumulation | none of tested sesquiterpenes showed hepatotoxicity; also recorded: mildly increased the viability of hepatocytes in a concentration-dependent manner | – | – | – | strongest | 3.6 | significantly ameliorate DOX toxicity | – | – | – | –
24.4 ± 2.4 | – | C/C1=C\CC/C(C)=C/CC(C)(C)/C=C/C1 [HUM, α-humulene] | most effective; also recorded: inhibited the proliferation of CaCo-2 cancer cells | acted rather additively | – | did not influence ROS formation | – | – | none of tested sesquiterpenes showed hepatotoxicity | – | – | – | – | – | – | did not affect DOX toxicity | – | – | –
– | 1.9 | COc1cccc2c1C(=O)c1c(O)c3c(c(O)c1C2=O)C[C@@](O)(C(=O)CO)C[C@@H]3O[C@H]1C[C@H](N)[C@H](O)[C@H](C)O1 [DOX, doxorubicin, reference compound] | – | – | – | – | – | – | – | – | – | – | – | – | – | – | increased ROS production | did not have a significant effect | marked hepatotoxicity

— publication PMC6331978 (Molecules, 2015)
